Patent US8008291B2 (Mimetica Pty Ltd, priority 2008, dated 2011)

Target: T1, human MC5R (hMC5R) (Homo sapiens, UniProt P33032)
T1 construct: purchased Perkin Elmer RBXMC5M400UA
Experiment: Human MC5R radioligand binding assay (membranes, [125I] NDP-MSH displacement)
Settings: hMC5R binding; tested as trifluoroacetate or hydrochloride salts, or free bases; read-out: MC5R radioligand IC50
How it was run: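 Frozen human MC5R membranes incubated with test compound and in-house iodogen-labeled, HPLC-purified [125I]NDP-MSH for 1 hr at 37° C. Binding measured as displacement of the radioligand.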

T1 sequence (P33032 whole entry): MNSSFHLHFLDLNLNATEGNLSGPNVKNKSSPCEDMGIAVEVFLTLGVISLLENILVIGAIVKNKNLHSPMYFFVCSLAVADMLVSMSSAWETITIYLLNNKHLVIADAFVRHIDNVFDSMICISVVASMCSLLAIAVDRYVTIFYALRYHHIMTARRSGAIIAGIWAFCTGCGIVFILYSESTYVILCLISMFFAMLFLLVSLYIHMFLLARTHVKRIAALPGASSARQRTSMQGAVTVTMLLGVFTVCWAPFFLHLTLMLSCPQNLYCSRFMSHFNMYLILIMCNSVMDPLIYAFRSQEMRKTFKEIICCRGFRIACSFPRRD

| SMILES | IC50 [µM] |
| --- | --- |
| CC[C@H](CN1CC[C@@H](CNC(=O)c2ccc(Cl)c(Cl)c2)N[C@@H](CCN2CCCCCC2)C1=O)c1ccccc1 [Compound 452, N-(((3S,5S)-3-(2-(azepan-1-yl)ethyl)-2-oxo-1-((S)-2-phenylbutyl)-1,4-diazepan-5-yl)methyl)-3,4-dichlorobenzamide] | < 0.1 |
| NCCCC[C@@H]1N[C@H](CNC(=O)c2cc3ccccc3o2)CCN(CC(c2ccccc2)c2ccccc2)C1=O [Compound 129, N-(((3S,5S)-3-(4-aminobutyl)-1-(2,2-diphenylethyl)-2-oxo-1,4-diazepan-5-yl)methyl)benzofuran-2-carboxamide] | < 10 |
| O=C(NC[C@@H]1CCN(Cc2ccc(Cl)cc2Cl)C(=O)[C@H](CCN2CCCCC2)N1)c1ccc2cc(Cl)ccc2c1 [Compound 508, 6-chloro-N-(((3S,5S)-1-(2,4-dichlorobenzyl)-2-oxo-3-(2-(piperidin-1-yl)ethyl)-1,4-diazepan-5-yl)methyl)-2-naphthamide] | < 0.1 |
| NC[C@@H]1N[C@H](CNC(=O)c2ccc3ccccc3c2)CCN(CC(c2ccccc2)c2ccccc2)C1=O [Compound 271, N-(((3S,5S)-3-(aminomethyl)-1-(2,2-diphenylethyl)-2-oxo-1,4-diazepan-5-yl)methyl)-2-naphthamide] | < 1 |
| N=C(N)NCCC[C@@H]1N[C@H](CNC(=O)c2ccc3ccccc3c2)CCN(C[C@@H](NC(=O)C2CCC2)c2ccccc2)C1=O [Compound 269, N-(((3S,5S)-1-((S)-2-(cyclobutanecarboxamido)-2-phenylethyl)-3-(3-guanidinopropyl)-2-oxo-1,4-diazepan-5-yl)methyl)-2-naphthamide] | < 1 |
| CC[C@H](CN1CC[C@@H](CNC(=O)c2ccc(Cl)c(Cl)c2)N[C@@H](CCCN2CCCCC2)C1=O)c1ccccc1 [Compound 418, 3,4-dichloro-N-(((3S,5S)-2-oxo-1-((S)-2-phenylbutyl)-3-(3-(piperidin-1-yl)propyl)-1,4-diazepan-5-yl)methyl)benzamide] | < 0.1 |
| CC[C@H](CN1CC[C@@H](CNC(=O)c2ccc3cc(Cl)ccc3c2)N[C@@H](CCN(C(C)=O)C(C)C)C1=O)c1ccccc1 [Compound 498, 6-chloro-N-(((3S,5S)-3-(2-(N-isopropylacetamido)ethyl)-2-oxo-1-((S)-2-phenylbutyl)-1,4-diazepan-5-yl)methyl)-2-naphthamide] | < 1 |
| NCCCC[C@@H]1N[C@H](CNC(=O)Cc2ccc(-c3ccccc3)cc2)CCN(Cc2ccc3ccccc3c2)C1=O [Compound 121, N-(((3S,5S)-3-(4-aminobutyl)-1-(naphthalen-2-ylmethyl)-2-oxo-1,4-diazepan-5-yl)methyl)-2-(biphenyl-4-yl)acetamide] | < 1 |
| COC(CN1CC[C@@H](CNC(=O)c2ccc3ccccc3c2)N[C@@H](CCCNC(=N)N)C1=O)c1ccccc1 (stereo partly drawn) [Compound 289, N-(((3S,5S)-3-(3-guanidinopropyl)-1-(2-methoxy-2-phenylethyl)-2-oxo-1,4-diazepan-5-yl)methyl)-2-naphthamide] | < 1 |
| CCCCC(CC)C(=O)NC[C@@H]1CCN(CC(c2ccccc2)c2ccccc2)C(=O)[C@H](CCCN)N1 (stereo partly drawn) [Compound 221, N-(((3S,5S)-3-(3-aminopropyl)-1-(2,2-diphenylethyl)-2-oxo-1,4-diazepan-5-yl)methyl)-2-ethylhexanamide] | < 10 |
| CC(=O)N[C@@H](Cc1ccc2ccccc2c1)[C@@H]1CCN(CC(c2ccccc2)c2ccccc2)C(=O)[C@H](CCCNC(=N)N)N1 [Compound 79, N-((S)-1-((3S,5S)-1-(2,2-diphenylethyl)-3-(3-guanidinopropyl)-2-oxo-1,4-diazepan-5-yl)-2-(naphthalen-2-yl)ethyl)acetamide] | < 10 |
| CCC(CN1CC[C@@H](CNC(=O)c2ccc3cc(Cl)ccc3c2)N[C@@H](CCN)C1=O)C1CC1 (stereo partly drawn) [Compound 487, N-(((3S,5S)-3-(2-aminoethyl)-1-(2-cyclopropylbutyl)-2-oxo-1,4-diazepan-5-yl)methyl)-6-chloro-2-naphthamide] | < 1 |
| C/C(=C\c1ccccc1)C(=O)NC[C@@H]1CCN(CC(c2ccccc2)c2ccccc2)C(=O)[C@H](CCCNC(=N)N)N1 [Compound 173, (E)-N-(((3S,5S)-1-(2,2-diphenylethyl)-3-(3-guanidinopropyl)-2-oxo-1,4-diazepan-5-yl)methyl)-2-methyl-3-phenylacrylamide] | < 1 |
| C=C(C)[C@H](CC)CN1CC[C@@H](CNC(=O)c2ccc3cc(Cl)ccc3c2)N[C@@H](CCN2CCCCC2)C1=O [Compound 479, 6-chloro-N-(((3S,5S)-1-((S)-2-ethyl-3-methylbut-3-enyl)-2-oxo-3-(2-(piperidin-1-yl)ethyl)-1,4-diazepan-5-yl)methyl)-2-naphthamide] | < 0.01 |
| CC1CC(C)CC(CN2CC[C@@H](CNC(=O)c3ccc(Cl)c(Cl)c3)N[C@@H](CCNC(C)C)C2=O)C1 (stereo partly drawn) [Compound 387, 3,4-dichloro-N-(((3S,5S)-1-((3,5-dimethylcyclohexyl)methyl)-3-(2-(isopropylamino)ethyl)-2-oxo-1,4-diazepan-5-yl)methyl)benzamide] | < 1 |
| CC[C@H](CN1CC[C@@H](CNC(=O)c2ccc3cc(Cl)ccc3c2)N[C@@H](CCNC(=N)NC)C1=O)c1ccccc1 [Compound 458, 6-chloro-N-(((3S,5S)-3-(2-(3-methylguanidino)ethyl)-2-oxo-1-((S)-2-phenylbutyl)-1,4-diazepan-5-yl)methyl)-2-naphthamide] | < 0.1 |
| C[C@@H](CN1CC[C@@H](CNC(=O)c2ccc3ccccc3c2)N[C@@H](CCN)C1=O)c1ccc(Cl)cc1 [Compound 421, N-(((3S,5S)-3-(2-aminoethyl)-1-((R)-2-(4-chlorophenyl)propyl)-2-oxo-1,4-diazepan-5-yl)methyl)-2-naphthamide] | < 10 |
| N=C(N)NCCC[C@@H]1N[C@H](CNC(=O)/C(F)=C/c2ccccc2)CCN(CC(c2ccccc2)c2ccccc2)C1=O [Compound 195, (Z)-N-(((3S,5S)-1-(2,2-diphenylethyl)-3-(3-guanidinopropyl)-2-oxo-1,4-diazepan-5-yl)methyl)-2-fluoro-3-phenylacrylamide] | < 1 |
| CC(C)(NC(=O)/C=C/c1ccc(Cl)cc1)[C@@H]1CCN(CC(c2ccccc2)c2ccccc2)C(=O)[C@H](CCN2CCCCC2)N1 [Compound 420, (E)-3-(4-chlorophenyl)-N-(2-((3S,5S)-1-(2,2-diphenylethyl)-2-oxo-3-(2-(piperidin-1-yl)ethyl)-1,4-diazepan-5-yl)propan-2-yl)acrylamide] | < 1 |
| CC[C@H](CN1CC[C@@H](CNC(=O)c2ccc3cc(Cl)ccc3c2)N[C@@H](CCN2CCCCC2)C1=O)C(C)C [Compound 472, 6-chloro-N-(((3S,5S)-1-((S)-2-ethyl-3-methylbutyl)-2-oxo-3-(2-(piperidin-1-yl)ethyl)-1,4-diazepan-5-yl)methyl)-2-naphthamide] | < 0.1 |
| O=C(NC[C@@H]1CCN(CC(c2ccccc2)c2ccccc2)C(=O)[C@H](CCCN2CCCC2)N1)c1ccc2ccccc2c1 [Compound 261, N-(((3S,5S)-1-(2,2-diphenylethyl)-2-oxo-3-(3-(pyrrolidin-1-yl)propyl)-1,4-diazepan-5-yl)methyl)-2-naphthamide] | < 0.1 |
| CC[C@H](CN1CC[C@@H](CNC(=O)c2ccc(Cl)c(Cl)c2)N[C@@H](CCN2CCNCC2)C1=O)c1ccccc1 [Compound 443, 3,4-dichloro-N-(((3S,5S)-2-oxo-1-((S)-2-phenylbutyl)-3-(2-(piperazin-1-yl)ethyl)-1,4-diazepan-5-yl)methyl)benzamide] | < 0.1 |
